Reference: patent publication US6806230B1, “Pyrimidine derivatives and herbicides containing them” (Kumiai Chemical Industry Co., Ltd., priority 1999, dated 2004)

What was measured:
Format in all cases: in vivo
barnyard grass (Ec) = test: Test Example 2: herbicidal effects by upland soil treatment; design: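 0-5 growth inhibition grade; 5 = over 90%; 4 = 70-90%; 3 = 50-70%; 2 = 30-50%; 1 = 10-30%; 0 = under 10%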; conditions: dose 100 g active ingredient per 10 ares, examined on the 21st day after treatment
Procedure: In a 80 cm^2 plastic pot, upland soil was filled, and seeds of barnyard grass (Ec) and green foxtail (Se) were sown and covered with soil. A wettable powder prepared in accordance with Formulation Example 1 was diluted with water and uniformly applied to the soil surface by means of a small size spray at a rate of 100 l per 10 ares, so that the dose of the active ingredient would be 100 g per 10 ares. Thereafter, cultivation was carried out in a green house, and on the 21st day after the treatment, the herbicidal effects were examined in accordance with the standards as identified in Table 44.

monochoria (Mo) = test: Test Example 1: herbicidal effects by flooded paddy field treatment; design: herbicidal effects, Mo (monochoria):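 0-5 growth inhibition grade; 5 = over 90%; 4 = 70-90%; 3 = 50-70%; 2 = 30-50%; 1 = 10-30%; 0 = under 10%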; conditions: for herbicidal effects, Mo (monochoria): dose 100 g active ingredient per 10 ares, examined on the 21st day after treatment, standards of Table 44; for Herbicidal effect index, Mo: dose 100 gai/10a, examined on 21st day after treatment, index 0-5 per Table 44;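 on Herbicidal effect index, Mo: 0-5 growth inhibition grade; 5 = over 90%; 4 = 70-90%; 3 = 50-70%; 2 = 30-50%; 1 = 10-30%; 0 = under 10%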
Procedure: (§1) In a 100 cm^2 plastic pot, paddy field soil was filled and paddled. Then, seeds of barnyard grass (Eo) and monochoria (Mo) were sown, and water was introduced to a depth of 3 cm. Next day, a wettable powder prepared in accordance with Formulation Example 1 was diluted with water and dropwise applied to the water surface. The dose was 100 g of the active ingredient per 10 ares. Thereafter, cultivation was carried out in a green house, and on the 21st day after the treatment, the herbicidal effects were examined in accordance with the standards as identified in Table 44.

barnyard grass (Eo) = test: as above; design: herbicidal effects, Eo (barnyard grass):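 0-5 growth inhibition grade; 5 = over 90%; 4 = 70-90%; 3 = 50-70%; 2 = 30-50%; 1 = 10-30%; 0 = under 10%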; conditions: for herbicidal effects, Eo (barnyard grass): dose 100 g active ingredient per 10 ares, examined on the 21st day after treatment, standards of Table 44; for Herbicidal effect index, Eo: dose 100 gai/10a, examined on 21st day after treatment, index 0-5 per Table 44
Procedure: as §1
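Wherever Herbicidal effect index, Eo is given: 0-5 growth inhibition grade; 5 = over 90%; 4 = 70-90%; 3 = 50-70%; 2 = 30-50%; 1 = 10-30%; 0 = under 10%.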

| SMILES | Ec (herbicidal effects, index) (barnyard grass (Ec)) | herbicidal effects, Mo (monochoria) (monochoria (Mo)) | herbicidal effects, Eo (barnyard grass) (barnyard grass (Eo)) | Herbicidal effect index, Mo (monochoria (Mo)) | Herbicidal effect index, Eo (barnyard grass (Eo)) |
| --- | --- | --- | --- | --- | --- |
| CC(C)C(c1cncnc1C(F)(F)F)N(C)C(=O)COc1nnc(C(F)(F)F)s1 (racemic) [2-47] | 4 | – | – | – | – |
| C#CCN(C(=O)Cc1ccc(F)cc1)C(c1cncnc1C(F)(F)F)C(C)(C)C (racemic) [1-620] | 5 | – | – | – | – |
| Cc1ccc(CC(=O)N(C)C(c2cncnc2C(F)(F)F)C2(C)CC2)s1 (racemic) [2-59] | 5 | 5 | 5 | – | – |
| CON(C(=O)Cc1ccccc1)C(c1cncnc1C(F)(F)F)C(C)C (racemic) [1-332] | 5 | – | – | – | – |
| CC(C)C(c1cncnc1C(F)(F)Cl)N(C)C(=O)Oc1cccc2ccccc12 (racemic) [2-80] | – | 4 | 5 | – | – |
| CC(C)c1ncncc1C(C(C)C)N(C)C(=O)Cc1ccc(Cl)cc1F (racemic) [Compound 1-254] | 5 | 5 | 5 | – | – |
| CC(C)C(c1cncnc1C(F)(F)F)N(C)C(=O)N(C)C1CCCCC1 (racemic) [2-72] | 5 | 5 | 5 | – | – |
| CN(C(=O)Cc1cccc(F)c1)C(c1ccccc1)c1cncnc1C(F)(F)F (racemic) [Compound 1-266] | 5 | 5 | 5 | – | – |
| CN(C(=O)Cc1cccc(F)c1)C(c1cncnc1C(F)(F)F)C(C)(C)C (racemic) [Compound 1-265] | 5 | 5 | 5 | – | – |
| CC(C)C(c1cncnc1C(F)(F)F)N(C)C(=O)C(=O)c1ccccc1 (racemic) [1-328] | 5 | 5 | 5 | – | – |
| CSCC(c1cncnc1C(F)(F)F)N(C)C(=O)Cc1ccc(Br)cc1 (racemic) [1-415] | – | 5 | 5 | – | – |
| CC(C)C(c1cncnc1C(F)(F)F)N(C)C(=O)Oc1ccc(Cl)cc1 (racemic) [1-178] | – | 4 | 5 | – | – |
| CC(C)C(c1cncnc1C(F)(F)F)N(C)C(=O)Cc1ccncc1 (racemic) [2-5] | – | 5 | 5 | – | – |
| CSCC(c1cncnc1C(F)(F)F)N(C)C(=O)Cc1ccc(C)cc1 (racemic) [1-421] | – | 5 | 5 | – | – |
| CC(C)C(c1cncnc1-c1ccccc1)N(C)C(=O)Cc1ccccc1 (racemic) [1-322] | – | 5 | 5 | – | – |
| CN(C(=O)Cc1ccccc1F)C(c1cncnc1C(F)(F)F)C1CCCC1 (racemic) [Compound 1-156] | – | 5 | 5 | – | – |
| C#CCN(C(=O)Cc1ccccc1)C(c1cncnc1C(C)C)C(C)C (racemic) [1-621] | 5 | – | – | – | – |
| CC(C)C(c1cncnc1C(F)(F)F)N(C)C(=O)Cn1cc(Br)cn1 (racemic) [2-41] | – | 5 | 5 | – | – |
| CSCC(c1cncnc1C(F)(F)F)N(C)C(=O)Cc1ccc(F)cc1 (racemic) [1-413] | – | 5 | 5 | – | – |
| CSCC(c1cncnc1C(F)(F)F)N(C)C(=O)Cc1cccc(F)c1 (racemic) [1-420] | – | 5 | 5 | – | – |
| CSC(C(=O)N(C)C(c1cncnc1C(F)(F)F)C(C)C)c1ccc(Cl)cc1 (mixture of isomers) [Compound 1-154] | – | 5 | 5 | – | – |
| CC(C)C(c1cncnc1C(F)(F)Cl)N(C)C(=O)Oc1ccccc1 (racemic) [Compound 1-19] | – | – | – | 5 | 5 |

| SMILES | Ec (herbicidal effects, index) (barnyard grass (Ec)) | herbicidal effects, Mo (monochoria) (monochoria (Mo)) | herbicidal effects, Eo (barnyard grass) (barnyard grass (Eo)) | Herbicidal effect index, Mo (monochoria (Mo)) | Herbicidal effect index, Eo (barnyard grass (Eo)) |
| --- | --- | --- | --- | --- | --- |
| CN(C(=O)Cc1ccc(Cl)cc1)C(c1cncnc1C(F)(F)Cl)C1CC1 (racemic) [Compound 1-94] | – | – | – | 5 | 5 |
| Cc1ccc(OC(=O)N(C)C(c2cncnc2C(F)(F)Cl)C(C)C)cc1 (racemic) [1-636] | 4 | – | – | – | – |
| CC(C)C(c1cncnc1C=O)N(C)C(=O)Cc1ccc(F)cc1 (centres unmarked) [Compound 1-523, N-[1-(4-formylpyrimidin-5-yl)-2-methylpropyl]-N-methyl-4-fluorophenylacetamide] | 4 | – | – | – | – |
| CON=Cc1ncncc1C(C(C)C)N(C)C(=O)OCc1ccccc1 (racemic) [1-471] | 5 | – | – | – | – |
| CC(C)C(c1cncnc1C=NO)N(C)C(=O)Cc1ccc(F)cc1 (racemic) [1-501] | – | 5 | 5 | – | – |
| CC(C)c1ncncc1C(C=NO)N(C)C(=O)OCc1ccccc1 (racemic) [1-531] | 4 | – | – | – | – |
| CCOC(OCC)c1ncncc1C(C(C)C)N(C)C(=O)Cc1ccc(Cl)cc1 (racemic) [1-469] | – | 5 | 5 | – | – |
| CON=CC(c1cncnc1C(C)C)N(C)C(=O)OCc1ccccc1 (racemic) [1-466] | 4 | – | – | – | – |
| C#CCN(C(=O)Cc1ccc(Cl)cc1)C(c1cncnc1C(C)C)C(C)C (racemic) [1-623] | 5 | – | – | – | – |
| COC(C)(OC)C(c1cncnc1C(C)C)N(C)C(=O)Cc1ccc(F)cc1 (racemic) [1-510] | – | 5 | 5 | – | – |
| CC(C)C(c1cncnc1C(F)(F)Cl)N(C)C(=O)Oc1ccc(F)cc1 (racemic) [1-184] | – | 5 | 5 | – | – |
| Cc1ccc(CC(=O)N(C)C(C)c2cncnc2C(C)(C)C)cc1 (racemic) [1-191] | – | 5 | 5 | – | – |
| CC(C)C(c1cncnc1C(F)(F)Cl)N(C)C(=O)Oc1ccc(Cl)cc1 (racemic) [1-185] | – | 5 | 5 | – | – |
| CCc1ncncc1C(CC)N(C)C(=O)Oc1ccc(Cl)cc1 (racemic) [1-646] | 4 | – | – | – | – |
| CCOC(=O)c1ncncc1C(C(C)C)N(C)C(=O)C(C)c1ccc(Cl)cc1 (single isomer, unassigned) [1-595] | – | 5 | 5 | – | – |
| C#CCN(C(=O)Cc1ccccc1)C(c1cncnc1CCC)C(C)C (racemic) [1-616] | 5 | – | – | – | – |
| COc1ccc(OC(=O)N(C)C(c2cncnc2C(F)(F)Cl)C(C)C)cc1 (racemic) [1-637] | – | 5 | 5 | – | – |
| CC(C)c1ncncc1C(C(C)C)N(C)C(=O)Nc1ccccc1 (racemic) [1-326] | 4 | – | – | – | – |
| C#CCN(C(=O)Cc1ccc(Cl)cc1)C(c1cncnc1CCC)C(C)C (racemic) [1-618] | 5 | – | – | – | – |
| COC(OC)c1ncncc1C(C(C)C)N(C)C(=O)C(C)c1ccc(Cl)cc1 (mixture of isomers) [1-625] | 4 | – | – | – | – |
| CSCC(c1cncnc1C(F)(F)F)N(C)C(=O)Cc1ccc(Cl)cc1F (racemic) [1-422] | – | 5 | 5 | – | – |
